Source: patent US8951999B2, “Compounds” (Orexo AB, priority 2009, dated 2015)

Target: T1, recombinant human mPGES-1 (Homo sapiens, UniProt O14684)
T1 sequence (O14684 1-152): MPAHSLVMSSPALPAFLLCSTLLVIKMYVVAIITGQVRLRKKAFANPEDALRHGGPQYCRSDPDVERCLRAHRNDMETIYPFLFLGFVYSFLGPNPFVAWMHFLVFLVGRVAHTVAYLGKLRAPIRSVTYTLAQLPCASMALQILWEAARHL
Assay: Assay B: mPGES-1 enzyme assay (modified)
Assay type: biochemical
Details: biological assay B (all other compounds); PGH2 final conc. 2 μM, HTRF; read-out: mPGES-1 inhibitory effect IC50
Procedure, shortened: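 Microsomal recombinant human mPGES-1 preincubated 25 min at room temperature with compound in pH 7.4 phosphate buffer containing 2.5 mmol/L GSH; reaction started with 2 μM PGH2 (final), stopped with FeCl2 after 60 s. PGE2 quantified by HTRF against calibration curve; IC50 by nonlinear regression after background subtraction.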

**Q.** Which IC50 does the source give for CC(C)(C(=O)NCc1ccc(Cl)c(C(=O)Nc2ccc(OCC(F)F)c(C(=O)Nc3ccc(Br)c(F)c3)c2)c1)C(F)(F)F [Example 133] here?
**A.** The IC50 was 6 nM.

**Q.** With COCCOc1ccc(NC(=O)c2cc(CNC(=O)C(C)(C)C(F)(F)F)ccc2Cl)cc1C(=O)Nc1ccc(Br)cc1 [Example 72] as the compound, how does the IC50 read?
**A.** Its IC50 is 4 nM.

**Q.** CC(NC(=O)c1cc(NC(=O)c2cc(CNC(=O)C(C)(C)C(F)(F)F)ccc2Cl)ccc1OCC(F)F)C1CC1 (stereo not shown) [Example 135] was tested. Which IC50 did it give?
**A.** Its IC50 is 7 nM.

**Q.** How did the IC50 turn out when CC(C)(C)C(=O)NCc1ccc(Cl)c(C(=O)Nc2ccc(OCC(F)F)c(C(=O)Nc3ccc(F)c(Cl)c3)c2)c1F [Example 46, N-[4-(2,2-Difluoroethyl)oxy-3-(4-fluoro-3-chloro-phenyl)aminocarbonyl-phenyl]-6-chloro-2-fluoro-3-(tert-butylcarbonylamino)methyl-benzamide] was run?
**A.** The IC50 was 5 nM.

**Q.** How did the IC50 turn out when CC(C)(C)C(=O)NCc1ccc(Cl)c(C(=O)Nc2ccc(N3CCC(F)CC3)c(C(=O)Nc3ccc(Br)cc3)c2)c1Cl [Example 61] was run?
**A.** The IC50 was 5 nM.

**Q.** CC(C)(C)NC(=O)c1cc(NC(=O)c2c(Cl)ccc(CNC(=O)C(C)(C)C(F)(F)F)c2F)ccc1OCC(F)F [Example 78] was tested. Which IC50 did it give?
**A.** The IC50 was 2 nM.

**Q.** CC(C)(C(=O)NCc1ccc(Cl)c(C(=O)Nc2ccc(OCC(F)F)c(C(=O)NCC3CCC3)c2)c1)C(F)(F)F [Example 141] was tested. Which IC50 did it give?
**A.** Its IC50 is 5 nM.

**Q.** How did the IC50 turn out when CC(C)(C(=O)NCc1ccc(Cl)c(C(=O)Nc2ccc(OCC(F)F)c(C(=O)Nc3ccc(Cl)c(Cl)c3)c2)c1)C(F)(F)F [Example 125] was run?
**A.** Its IC50 is 5 nM.

**Q.** For O=C(Nc1ccc(OCC(F)F)c(C(=O)Nc2ccc(Br)cc2)c1)c1cc(CNC(=O)C(F)(F)F)ccc1Cl [Example 80], which IC50 is on record?
**A.** Its IC50 is 10 nM.

**Q.** Which IC50 does the source give for CC1CCC(NC(=O)c2cc(NC(=O)c3cc(CNC(=O)C(C)(C)C(F)(F)F)ccc3Cl)ccc2OCC(F)F)CC1 (stereo not shown) [Example 96] here?
**A.** Its IC50 is 5 nM.

**Q.** Which IC50 does the source give for CC(C)(C(=O)NCc1ccc(Cl)c(C(=O)Nc2ccc(OCC(F)F)c(C(=O)NCc3ccc(F)cc3C(F)(F)F)c2)c1)C(F)(F)F [Example 89] here?
**A.** The IC50 was 4 nM.

**Q.** Which IC50 does the source give for CC(C)(C(=O)NCc1ccc(Cl)c(C(=O)Nc2ccc(OCC(F)F)c(C(=O)Nc3ccc(Cl)c(C(F)(F)F)c3)c2)c1)C(F)(F)F [Example 126] here?
**A.** Its IC50 is 4 nM.

**Q.** CC(C)(C(=O)NCc1ccc(Cl)c(C(=O)Nc2ccc(OCC(F)F)c(C(=O)NC3CCC3)c2)c1)C(F)(F)F [Example 122] was tested. Which IC50 did it give?
**A.** Its IC50 is 7 nM.

**Q.** CC(C)(C(=O)NCc1ccc(Cl)c(C(=O)Nc2ccc(OCC(F)F)c(C(=O)NC3CC(F)(F)C3)c2)c1Cl)C(F)(F)F [Example 154] was tested. Which IC50 did it give?
**A.** The IC50 was 9 nM.

**Q.** For COCCOc1ccc(NC(=O)c2cc(CNC(=O)C(C)C(F)(F)F)ccc2Cl)cc1C(=O)Nc1ccc(Br)cc1 (stereo not shown) [Example 65, N-[4-(2-Methoxy)ethoxy-3-(4-bromphenyl)aminocarbonyl-phenyl]-2-chloro-5-(2,2,2-trifluoro-1-methyl-ethyl)carbonylaminomethyl-benzamide], which IC50 is on record?
**A.** Its IC50 is 4 nM.

**Q.** How did the IC50 turn out when Cc1nc(C(=O)NCc2ccc(Cl)c(C(=O)Nc3ccc(OCC(F)F)c(C(=O)Nc4ccc(Br)cc4)c3)c2)c(C)s1 [Example 168] was run?
**A.** The IC50 was 105 nM.

**Q.** With CNC(=O)c1cc(NC(=O)c2cc(CNC(=O)C(C)(C)C(F)(F)F)ccc2Cl)ccc1OCC(F)F [Example 97] as the compound, how does the IC50 read?
**A.** Its IC50 is 79 nM.

**Q.** For CC(C)(C(=O)NCc1ccc(Cl)c(C(=O)Nc2ccc(N3CCC(C(F)(F)F)CC3)c(C(=O)NCC3CC3)c2)c1Cl)C(F)(F)F [Example 59, N-[4-(4-Trifluoromethyl-piperidin-1-yl)-3-(cyclopropylmethyl)aminocarbonyl-phenyl]-2,6-dichloro-3-[(2,2,2-trifluoro-1,1-dimethyl-ethyl)carbonylamino]methyl-benzamide], which IC50 is on record?
**A.** Its IC50 is 5 nM.

**Q.** How did the IC50 turn out when COCCOc1ccc(NC(=O)c2cc(CNC(=O)C(C)(C)C)ccc2Cl)cc1C(=O)Nc1ccc(Br)cc1 [Example 70] was run?
**A.** Its IC50 is 5 nM.

**Q.** With CNC(C)(C)C(=O)NCc1ccc(Cl)c(C(=O)Nc2ccc(OCC(F)F)c(C(=O)Nc3ccc(Br)cc3)c2)c1 [Example 176] as the compound, how does the IC50 read?
**A.** The IC50 was 50 nM.

**Q.** CC(C)(C(=O)NCc1ccc(Cl)c(C(=O)Nc2ccc(OCC(F)F)c(C(=O)Nc3ccc(F)c(Cl)c3)c2)c1Cl)C(F)(F)F [Example 145, N-[4-(2,2-difluoroethyl)oxy-3-(4-fluoro-3-chlorophenyl)aminocarbonyl-phenyl]-2,6-dichloro-3-[(2,2,2-trifluoro-1,1-dimethyl-ethyl)carbonylamino]methyl-benzamide] was tested. Which IC50 did it give?
**A.** The IC50 was 10 nM.

**Q.** For CC(C)(C)C(=O)NCc1ccc(Cl)c(C(=O)Nc2ccc(OCC(F)F)c(C(=O)N[C@H]3CC[C@H](C(F)(F)F)CC3)c2)c1Cl [Example 48, N-[4-(2,2-Difluoroethyl)oxy-3-[trans-(4-trifluoromethylcyclohexyl)amino]carbonylphenyl]-2,6-dichloro-3-(tert-butylcarbonylamino)methyl-benzamide], which IC50 is on record?
**A.** Its IC50 is 6 nM.

**Q.** How did the IC50 turn out when COc1cc(Cl)ccc1NC(=O)c1cc(NC(=O)c2c(Cl)ccc(CNC(=O)C(C)(C)C(F)(F)F)c2Cl)ccc1OCC(F)F [Example 158] was run?
**A.** Its IC50 is 2 nM.

**Q.** How did the IC50 turn out when CC(C)(C(=O)NCc1ccc(Cl)c(C(=O)Nc2ccc(OCC(F)F)c(C(=O)NCc3ccccc3OC(F)(F)F)c2)c1)C(F)(F)F [Example 132] was run?
**A.** The IC50 was 6 nM.

**Q.** With CC(C)(C)C(=O)NCc1ccc(F)c(C(=O)Nc2ccc(OCC(F)F)c(C(=O)Nc3ccc(Br)cc3)c2)c1Cl [Example 44, N-[4-(2,2-Difluoroethyl)oxy-3-(4-bromophenyl)aminocarbonyl-phenyl]-6-fluor-2-chlor-3-(tert-butylcarbonylamino)methyl-benzamide] as the compound, how does the IC50 read?
**A.** Its IC50 is 15 nM.

**Q.** With CC(C)(C(=O)NCc1ccc(Cl)c(C(=O)Nc2ccc(OCC(F)F)c(C(=O)Nc3ccc(F)c(Cl)c3)c2)c1F)C(F)(F)F [Example 77, N-[4-(2,2-Difluoroethyl)oxy-3-(4-fluoro-3-chloro-phenyl)aminocarbonyl-phenyl]-6-chloro-2-fluoro-3-[(2,2,2-trifluoro-1,1-dimethyl-ethyl)carbonylamino]methyl-benzamide] as the compound, how does the IC50 read?
**A.** The IC50 was 2 nM.

**Q.** How did the IC50 turn out when O=C(Nc1ccc(OCC(F)F)c(C(=O)Nc2ccc(Br)cc2)c1)c1cc(CNC(=O)C(O)C(F)(F)F)ccc1Cl (stereo not shown) [Example 169] was run?
**A.** Its IC50 is 9 nM.

**Q.** CC(C)(C(=O)NCc1ccc(Cl)c(C(=O)Nc2ccc(OCC(F)F)c(C(=O)Nc3ccc(F)c(Cl)c3)c2)c1)C(F)(F)F [Example 128] was tested. Which IC50 did it give?
**A.** Its IC50 is 5 nM.

**Q.** How did the IC50 turn out when CC(C)(C(=O)NCc1ccc(Cl)c(C(=O)Nc2ccc(OCC(F)F)c(C(=O)Nc3cc(Cl)c4cc[nH]c4c3)c2)c1)C(F)(F)F [Example 144] was run?
**A.** The IC50 was 7 nM.

**Q.** For CC(C)(C#N)C(=O)NCc1ccc(Cl)c(C(=O)Nc2ccc(OCC(F)F)c(C(=O)Nc3ccc(Br)cc3)c2)c1 [Example 165], which IC50 is on record?
**A.** The IC50 was 8 nM.

**Q.** CC(C)(C(=O)NCc1ccc(Cl)c(C(=O)Nc2ccc(OCC(F)F)c(C(=O)Nc3cccc(Cl)c3)c2)c1Cl)C(F)(F)F [Example 150] was tested. Which IC50 did it give?
**A.** Its IC50 is 2 nM.

**Q.** How did the IC50 turn out when Cc1ccc(Cl)cc1NC(=O)c1cc(NC(=O)c2c(Cl)ccc(CNC(=O)C(C)(C)C(F)(F)F)c2Cl)ccc1OCC(F)F [Example 153] was run?
**A.** The IC50 was 5 nM.

**Q.** How did the IC50 turn out when CC(C)(C(=O)NCc1ccc(Cl)c(C(=O)Nc2ccc(OCC(F)F)c(C(=O)Nc3ccc(Br)c(Cl)c3)c2)c1)C(F)(F)F [Example 105] was run?
**A.** The IC50 was 5 nM.

**Q.** How did the IC50 turn out when O=C(Nc1ccc(OCC(F)F)c(C(=O)Nc2ccc(Br)cc2)c1)c1cc(CNC(=O)C2CCCN2c2nccs2)ccc1Cl (stereo not shown) [Example 164] was run?
**A.** The IC50 was 79 nM.
